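Each compound was tested at five concentrations against cells in 96-well plates for 48 hours. At the GI50, growth is halved.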 The source made the active and inactive calls. Cut-off read from the data, not from the text of the source: active = GI50 up to about 1.1 µM and inactive = higher.
Key:
Assay in all cases: DTP human tumour cell line panel, 48 h
SNB-19 = tested on: SNB-19
COLO 205 = tested on: COLO 205
EKVX = tested on: EKVX
RPMI-8226 = tested on: RPMI-8226
HL-60 = tested on: HL-60
OVCAR-5 = tested on: OVCAR-5
UACC-62 = tested on: UACC-62
NCI-H226 = tested on: NCI-H226
SK-MEL-2 = tested on: SK-MEL-2
HCT-116 = tested on: HCT-116
HOP-62 = tested on: HOP-62
CCRF-CEM = tested on: CCRF-CEM
786-0 = tested on: 786-0
HOP-92 = tested on: HOP-92
MDA-MB-435 = tested on: MDA-MB-435
Hs-578T = tested on: Hs-578T
T47D = tested on: T47D

Measured: GI50

CC1CCc2c(sc3ncnc(N/N=C/c4ccc(Cl)cc4)c23)C1 (configuration not stated)
inactive: SNB-19 30.1 µM | COLO 205 31.6 µM | EKVX 20.1 µM | RPMI-8226 29.9 µM | HL-60 19.2 µM | OVCAR-5 > 100 µM | UACC-62 31.1 µM | NCI-H226 11.7 µM | SK-MEL-2 48.8 µM | HCT-116 19.3 µM | HOP-62 41.9 µM | CCRF-CEM > 10 µM | 786-0 34.7 µM

CCOC(=O)/C(O)=C/c1cc(OC)cc(=O)o1
inactive: SNB-19 > 100 µM | COLO 205 > 100 µM | EKVX > 100 µM | RPMI-8226 > 100 µM | HL-60 > 100 µM | OVCAR-5 > 100 µM | UACC-62 > 100 µM | NCI-H226 > 100 µM | SK-MEL-2 > 100 µM | HCT-116 > 100 µM | HOP-92 > 100 µM | CCRF-CEM > 100 µM | 786-0 > 100 µM

CN(C)CCNC(=O)c1cccc2ccc(-c3cccnc3)nc12
inactive: SNB-19 4.14 µM | COLO 205 3.13 µM | EKVX 4.47 µM | HL-60 3.71 µM | OVCAR-5 3.87 µM | UACC-62 4.73 µM | NCI-H226 6.84 µM | SK-MEL-2 8.57 µM | HCT-116 3.24 µM | HOP-92 4.39 µM | HOP-62 5.57 µM | CCRF-CEM 6.4 µM | 786-0 5.89 µM

CSc1n/c(=N\c2ccccc2)sn1-c1ccccc1
inactive: SNB-19 17.1 µM | COLO 205 7.73 µM | EKVX 27.5 µM | RPMI-8226 5.45 µM | HL-60 3.74 µM | OVCAR-5 17.3 µM | UACC-62 4.76 µM | NCI-H226 15.5 µM | SK-MEL-2 17.1 µM | HCT-116 8.43 µM | HOP-62 15.6 µM | CCRF-CEM 11.2 µM | 786-0 16.6 µM

O=C1N2Cc3c4ccc5c3CN3C(=O)N6Cc7c(ccc(c7CN1C6(c1ccccc1)C23c1ccccc1)OCCOCCOc1cc(Br)c(Br)cc1OCCOCCO4)OCCOCCOc1cc(Br)c(Br)cc1OCCOCCO5 (configuration not stated)
inactive: SNB-19 > 100 µM | EKVX > 100 µM | RPMI-8226 > 100 µM | UACC-62 > 100 µM | NCI-H226 > 100 µM | SK-MEL-2 91 µM | HCT-116 > 100 µM | HOP-92 39.2 µM | HOP-62 40.8 µM | CCRF-CEM > 100 µM | 786-0 > 100 µM

C=C1CC2CC(=O)C(O)C(C1)C2 (configuration not stated)
inactive: COLO 205 > 100 µM | EKVX > 100 µM | RPMI-8226 > 100 µM | MDA-MB-435 > 100 µM | HL-60 > 100 µM | OVCAR-5 > 100 µM | UACC-62 > 100 µM | Hs-578T > 100 µM | NCI-H226 > 100 µM | T47D 69 µM | HCT-116 > 100 µM | HOP-92 > 100 µM | HOP-62 > 100 µM | CCRF-CEM > 100 µM | 786-0 > 100 µM

COc1cc2cc[n+](C)c(Cc3ccccc3)c2cc1OC
inactive: SNB-19 > 100 µM | COLO 205 > 100 µM | EKVX > 100 µM | RPMI-8226 > 100 µM | OVCAR-5 > 100 µM | UACC-62 > 100 µM | NCI-H226 > 100 µM | SK-MEL-2 > 100 µM | HCT-116 > 100 µM | HOP-92 96.6 µM | CCRF-CEM > 100 µM | 786-0 > 100 µM

CC1=C(C(=O)Nc2cc(F)c(F)cc2F)C(c2ccc(N(C)C)cc2)C(C(=O)Nc2cc(F)c(F)cc2F)=C(C)N1
active: HOP-92 0.53 µM
inactive: SNB-19 38.7 µM | COLO 205 43.2 µM | EKVX 16 µM | RPMI-8226 17.2 µM | HL-60 13.9 µM | OVCAR-5 32.5 µM | NCI-H226 20.6 µM | SK-MEL-2 28.8 µM | HOP-62 21.1 µM | CCRF-CEM 18.5 µM | 786-0 27.1 µM

Source: ChEMBL document CHEMBL1201862, “PubChem BioAssay data set” (2004)
